This is an account of results in ChEMBL document CHEMBL1781945, “A new series of 3-phenylcoumarins as potent and selective MAO-B inhibitors” (Bioorg Med Chem Lett, 2009).

Structures are written as SMILES.

For data set [1], the target named is T1, Amine oxidase [flavin-containing] A (Homo sapiens, UniProt P21397).
T1 sequence (P21397 whole entry): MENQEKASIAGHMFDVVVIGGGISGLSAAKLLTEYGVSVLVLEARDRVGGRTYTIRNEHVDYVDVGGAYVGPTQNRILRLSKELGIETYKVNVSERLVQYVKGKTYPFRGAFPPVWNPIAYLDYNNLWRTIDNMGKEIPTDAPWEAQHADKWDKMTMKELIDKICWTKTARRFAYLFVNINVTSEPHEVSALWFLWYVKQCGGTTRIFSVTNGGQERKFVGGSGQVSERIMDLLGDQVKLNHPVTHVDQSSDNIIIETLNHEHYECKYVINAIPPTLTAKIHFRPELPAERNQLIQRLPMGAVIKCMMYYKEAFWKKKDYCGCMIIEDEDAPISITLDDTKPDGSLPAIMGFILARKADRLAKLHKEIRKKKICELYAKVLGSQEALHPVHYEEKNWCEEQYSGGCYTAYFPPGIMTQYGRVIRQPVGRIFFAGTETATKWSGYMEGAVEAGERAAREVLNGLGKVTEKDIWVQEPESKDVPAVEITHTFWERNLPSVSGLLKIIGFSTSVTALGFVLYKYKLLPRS
Kind of data set: Inhibition of human recombinant MAOA expressed in BTI insect cells at 100 uM using p-tyramine substrate by fluorometric method.

The next data set is filed under the species Homo sapiens. Kind of data set: Selectivity index, ratio of IC50 for human recombinant MAOA to IC50 for human recombinant MAOB.
Data set [2] concerns the target T2, Amine oxidase [flavin-containing] B (Homo sapiens, UniProt P27338).
T2 sequence (P27338 whole entry): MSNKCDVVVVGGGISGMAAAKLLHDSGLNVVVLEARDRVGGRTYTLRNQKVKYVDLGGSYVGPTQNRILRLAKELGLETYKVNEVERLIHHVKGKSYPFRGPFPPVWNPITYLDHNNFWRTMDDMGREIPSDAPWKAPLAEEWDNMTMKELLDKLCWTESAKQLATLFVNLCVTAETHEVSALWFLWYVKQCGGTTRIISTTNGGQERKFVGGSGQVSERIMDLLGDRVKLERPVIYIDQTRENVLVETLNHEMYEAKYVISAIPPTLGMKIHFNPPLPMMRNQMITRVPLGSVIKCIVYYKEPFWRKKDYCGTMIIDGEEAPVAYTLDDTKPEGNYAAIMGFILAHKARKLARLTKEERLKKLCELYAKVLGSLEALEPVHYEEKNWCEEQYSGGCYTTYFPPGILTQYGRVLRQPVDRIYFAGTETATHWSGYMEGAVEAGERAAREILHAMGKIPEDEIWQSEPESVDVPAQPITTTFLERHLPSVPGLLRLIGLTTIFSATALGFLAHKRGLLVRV
Kind of data set: Inhibition of human recombinant MAOB expressed in BTI insect cells using p-tyramine substrate by fluorometric method.

The IC50 is the concentration at which inhibition is half-maximal. On to `COc1cc(OC)cc(-c2cc3cc(C)ccc3oc2=O)c1`, for which, in data set [1], the “inhibition (INH)” value is on record as “Not Active”. Also, in the data set listed under Homo sapiens, the Ratio IC50 is over 11100. In addition, the IC50 in data set [2] is 8.98 nM.
For `COc1ccc(-c2cc3cc(C)ccc3oc2=O)cc1`, the “inhibition (INH)” value in data set [1] is given as “Not Active”. Further, the Ratio IC50 in the data set listed under Homo sapiens is over 7660. Also, the concentration for half-maximal inhibition (IC50) in data set [2] stood at 13.1 nM.
Consider `Cc1ccc2oc(=O)c(-c3ccccc3)cc2c1`, for which the “inhibition (INH)” value in data set [1] is given as “Not Active”. Further, the Ratio IC50 in the data set filed under Homo sapiens is over 352. Moreover, the IC50 in data set [2] is 284 nM.
Turning to `COc1cc(-c2cc3cc(C)ccc3oc2=O)cc(OC)c1OC`, the “inhibition (INH)” value in data set [1] is recorded as “Not Active”. Besides, the Ratio IC50 in the data set filed under Homo sapiens was over 623. Besides, the IC50 in data set [2] came out at 161 nM.
